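Following 48 hours of exposure in 96-well plates, responses at five concentrations were used to interpolate endpoints linearly. GI50: concentration for 50% inhibition of growth. The concentration for full growth arrest is given as TGI.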
Assays:
Test in all cases: inhibition of tumour cell growth, NCI panel, 48 h
[1] = test system: COLO 205 colon
[2] = test system: HCT-15 colon
[3] = test system: ACHN renal
[4] = test system: NCI-H23 lung
[5] = test system: OVCAR-8 ovarian
[6] = test system: NCI-H460 lung
[7] = test system: NCI-H522 lung
[8] = test system: HCC-2998 colon
[9] = test system: UACC-62 melanoma
[10] = test system: SK-MEL-5 melanoma
[11] = test system: PC-3 prostate
[12] = test system: DU-145 prostate
[13] = test system: OVCAR-5 ovarian
[14] = test system: MOLT-4 leukemia
[15] = test system: IGROV1 ovarian
[16] = test system: MDA-MB-435
[17] = test system: 786-0 renal
[18] = test system: SF-539 CNS
[19] = test system: T-47D breast
[20] = test system: RPMI-8226 leukemia
[21] = test system: MCF7 breast
[22] = test system: M14 melanoma
[23] = test system: LOX IMVI melanoma
[24] = test system: MALME-3M melanoma
[25] = test system: TK-10 renal
[26] = test system: KM12 colon
[27] = test system: SR leukemia
[28] = test system: HL-60(TB) leukemia
[29] = test system: NCI-H226 lung

NC(N)=N/N=C(/c1ccccc1)c1ccccc1F
GI50 [1]: 2.16 µM
TGI [1]: 7.01 µM
GI50 [2]: 1.98 µM
TGI [2]: 13.8 µM
GI50 [3]: 4.49 µM
TGI [3]: 20 µM
GI50 [4]: 5.02 µM
TGI [4]: 27.8 µM
GI50 [5]: 4.03 µM
TGI [5]: 25.8 µM
GI50 [6]: 2.31 µM
TGI [6]: 10.4 µM
GI50 [7]: 3.12 µM
TGI [7]: 14.7 µM
GI50 [8]: 1.39 µM
TGI [8]: 4.73 µM
GI50 [9]: 4.54 µM
TGI [9]: 20.7 µM
GI50 [10]: 0.911 µM
TGI [10]: 12.5 µM
GI50 [11]: 4.7 µM
TGI [11]: > 57.7 µM
GI50 [12]: 3.56 µM
TGI [12]: 16.6 µM
GI50 [13]: 7.49 µM
TGI [13]: 33.8 µM
GI50 [14]: 5.57 µM
TGI [14]: > 100 µM
GI50 [15]: 2.89 µM
TGI [15]: > 50 µM
GI50 [16]: 0.347 µM
TGI [16]: 3.81 µM
GI50 [17]: 4.58 µM
TGI [17]: 21 µM
GI50 [18]: 0.8 µM
TGI [18]: 4.59 µM
GI50 [19]: 12.6 µM
TGI [19]: 41.3 µM
GI50 [20]: 7.6 µM
TGI [20]: > 82.1 µM
GI50 [21]: 0.327 µM
TGI [21]: 13.3 µM
GI50 [22]: 1.7 µM
TGI [22]: 9.59 µM
GI50 [23]: 4.69 µM
TGI [23]: 19.9 µM
GI50 [24]: 8 µM
TGI [24]: 25.6 µM
GI50 [25]: 9.86 µM
TGI [25]: 47.2 µM
GI50 [26]: 1.14 µM
TGI [26]: 12.9 µM
GI50 [27]: 0.809 µM
TGI [27]: > 100 µM
GI50 [28]: 2.96 µM
TGI [28]: > 100 µM
GI50 [29]: 5.35 µM
TGI [29]: 22 µM
